Test results from patent publication US20100113517A1, “METHOD FOR THE TREATMENT OF FABRY DISEASE USING PHARMACOLOGICAL CHAPERONES” (AMICUS THERAPEUTICS, INC., priority 2007, published 2010).
Several values for one entry are separate records, joined by “and”; a condition that tells them apart may be missing. Identical values can stand only once. Like-named read-outs stand apart in the source and are kept apart here.

What was measured:
[1] = Phase I ascending single oral dose study, safety and tolerability; type: in vivo, healthy volunteers (human); conditions: healthy male subjects, single doses 25 mg through 675 mg
Protocol: Study Design and Duration. […] Dose escalation to the next dose level (i.e., next group) proceeded following review of safety and tolerability of the previous group(s). Subjects were housed in the treatment facility from 14 hours prior to dosing until 24 hours after dosing. Meals were controlled by schedule and subjects remained abulatory for 4 hours post drug administration.
(§1) Safety and Tolerability Assessments.
Statistical Analysis. Safety data including laboratory evaluations, physical exams, adverse events, ECG monitoring and vital signs assessments were summarized by treatment group and point of time of collection. Descriptive statistics (arithmetic mean, standard deviation, median, minimum and maximum) were calculated for quantitative safety data as well as for the difference to baseline. Frequency counts were compiled for classification of qualitative safety data. In addition, a shift table describing out of normal range shifts was provided for clinical laboratory results. A normal-abnormal shift table was also be presented for physical exam results and ECGs.
Concomitant medications and medical history were listed by treatment.

[2] = Phase Ib twice daily oral dose study, pharmacokinetics; type: in vivo, healthy volunteers (human); conditions: for half-life: read-out: t½ (converted)
Protocol: (§2) Study Design and Duration. […] Subjects were housed in the treatment facility from 14 hours prior to dosing until 24 hours after dosing. Meals were controlled by schedule and subjects remained abulatory for 4 hours post drug administration
Pharmacokinetic Sampling. Blood samples (10 mL each) were collected in blood collection tubes containing EDTA before dosing and at the following times thereafter: 0.25, 0.5, 0.75, 1, 1.5, 2, 3, 4, 5, 6, 7, 8, 9, 10, 11 and 12 hours. Blood samples were cooled in an ice bath and centrifuged under refrigeration as soon as possible. Plasma samples were divided into two aliquots and stored at […] pending assay. At the end of the study, all samples were transferred to MDS Pharma Services Analytical Laboratories (Lincoln) for analysis.
Pharmacokinetic parameters were summarised by treatment group using descriptive statistics (arithmetic means, standard deviations, coefficients of variation, sample size, minimum, maximum and median).

[3] = Phase Ib twice daily oral dose study, safety and tolerability; type: in vivo, healthy volunteers (human)
Protocol: as §2, §1
WBC α-GAL A Enzymatic Activity Sampling. Blood samples (10 mL each) were collected in blood collection tubes containing EDTA and WBC extracted before dosing and at the following times thereafter: 100 hours, 150 hours, and 336 hours. Samples were treated as described above, and WBC α-Gal A enzymatic activity levels were determined as described in Desnick, R. J. (ed) Enzyme therapy in genetic diseases. Vol 2. Alan R Liss, New York, pp 17-32. Statistical Analysis. Safety data including laboratory evaluations, physical exams, adverse events, ECG monitoring and vital signs assessments were summarized by treatment group and point of time of collection. Descriptive statistics (arithmetic mean, standard deviation, median, minimum and maximum) were calculated for quantitative safety data as well as for the difference to baseline. Frequency counts were compiled for classification of qualitative safety data. In addition, a shift table describing out of normal range shifts was provided for clinical laboratory results. A normal-abnormal shift table was also presented for physical exam results and ECGs. […]

α-Gal A = test: Phase II study in Fabry patients, α-Gal A activity in white blood cells; type: in vivo, Fabry patients (human)
Protocol: Study Design. A two-arm design was planned. […] In the second arm, escalating doses of 25, 100, and then 250 mg b.i.d. over 6 weeks, followed by 50 mg/day for the remainder of the study.
α-Gal A activity. In addition, α-Gal A activity will be assessed in fractionated tissue obtained from biopsies and in blood leukocytes and plasma (from blood collected at baseline and every month).
α-Gal A Activity. […] Eight patients in the study received an acending dose of 25, 100, and then 250 mg b.i.d. over 6 weeks, followed by 50 mg/day for the remainder of the study (represented on FIG. 2 by closed circles). For purposes of calculating the percentage of normal in the table, the level of α-GAL that is normal was derived by using the average of the levels of α-GAL in white blood cells of 15 healthy volunteers from the multiple-dose Phase I study.

[4] = test system: mutant α-Gal A (R301Q or Q279E); conditions: lymphoblasts from Fabry patients with R301Q or Q279E mutations; cited from earlier work
[5] = target: T1, human mutant α-Gal A (R301Q) (Homo sapiens, UniProt P06280, R301Q); conditions: neutral pH; cited from earlier work
T1 construct: Tissue lysates were prepared by homogenizing about 50 mg tissue in assay buffer; from tissue; host or cells: heart, kidney, skin, liver and spleen of R301Q Tg/KO mice (human transgene, mouse α-Gal A knocked out)
T1 sequence (P06280 32-429 R301Q): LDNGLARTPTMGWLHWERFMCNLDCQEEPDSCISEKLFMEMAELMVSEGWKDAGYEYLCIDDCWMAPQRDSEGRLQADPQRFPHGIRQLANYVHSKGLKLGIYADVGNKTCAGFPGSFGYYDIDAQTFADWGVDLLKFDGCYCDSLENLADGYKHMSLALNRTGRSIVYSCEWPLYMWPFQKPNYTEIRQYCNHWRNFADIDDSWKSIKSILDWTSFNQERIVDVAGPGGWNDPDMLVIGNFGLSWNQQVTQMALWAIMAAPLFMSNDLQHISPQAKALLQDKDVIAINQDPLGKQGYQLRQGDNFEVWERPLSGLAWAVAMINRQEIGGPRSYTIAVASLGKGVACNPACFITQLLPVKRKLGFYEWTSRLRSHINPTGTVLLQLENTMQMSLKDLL

mutant (R301Q) α-Gal A = target: T2, mutant (R301Q) α-Gal A (Homo sapiens, UniProt P06280, R301Q); conditions: oral administration; cited from earlier work
T2 construct: host or cells: major organs of transgenic mice overexpressing R301Q α-Gal A
T2 sequence (P06280 32-429 R301Q): T1 sequence (P06280 32-429 R301Q)

[6] = human, plasma, oral, 50 mg, 50 mg bid, Day 1
[7] = human, plasma, oral, 50 mg, 50 mg bid, Day 7
[8] = human, plasma, oral, 150 mg, 150 mg bid, Day 1
[9] = human, plasma, oral, 150 mg, 150 mg bid, Day 7

What does the source list for `OCC1NCC(O)C(O)C1O` (centres unmarked) [DGJ, 1-deoxygalactonojirimycin]?
safety and tolerability [1]: safe and well tolerated; 12 h cumulative renal excretion ([2]; 50 mg bid, Day 1): 16% and 16 ± 6%; 12 h cumulative renal excretion ([2]; 50 mg bid, Day 7): 48% and 48 ± 7%; Cmin ([2]; 50 mg bid, Day 7): 0.4 ± 0.03 µM; 12 h cumulative renal excretion ([2]; 150 mg bid, Day 1): 42% and 42 ± 7%; 12 h cumulative renal excretion ([2]; 150 mg bid, Day 7): 60% and 60 ± 5%; Cmin ([2]; 150 mg bid, Day 7): 1.2 ± 0.1 µM; time of peak concentrations, on average ([2]; all dose levels (50 and 150 mg b.i.d.)): approximately 3 hours; increase of Cmax with dose ([2]; doses increased from 50 mg to 150 mg): dose-proportional manner; concentration at 7 day ([2]; human, plasma, oral, 50 mg b.i.d., Day 7, read-out: Cmin): 0.4 µM; Cmax [2, 6]: 2.3 ± 0.3 µM; Tmax [2, 6]: 2.9 ± 0.4 h; Cmax [2, 7]: 3.9 ± 0.5 µM; Tmax [2, 7]: 2.5 ± 0.4 h; Cmax [2, 8]: 11.3 ± 1.5 µM; Tmax [2, 8]: 3.1 ± 0.4 h; Cmax [2, 9]: 10.8 ± 1.4 µM; Tmax [2, 9]: 2.9 ± 0.4 h; half-life ([2]; human, plasma, oral, 50 mg bid, Day 1): 2.5 h; half-life ([2]; human, plasma, oral, 150 mg bid, Day 1): 2.4 h; adverse events (AEs) ([3]; after 50 mg b.i.d. or 150 mg b.i.d.): no subject presented with AEs; safety and tolerability ([3]; healthy male subjects, 50 mg b.i.d. and 150 mg b.i.d., seven days): safe and well tolerated; enzyme activity at the lowest dose evaluated (α-Gal A; 25 mg b.i.d., Fabry patients): increased enzyme activity; restoration of α-Gal A activity levels by titration (α-Gal A; as measured in white blood cells): to the normal range; enzyme activity after dose reduction (α-Gal A; dose reduced after 6 weeks to 50 mg/day): remains elevated; patients with an increase in the activity of the enzyme deficient in Fabry disease (α-Gal A; first eleven patients treated for at least 12 weeks, white blood cells): 10 of the 11; enhancement of mutant enzyme activity [4]: ≥ 45%; in vitro stability of mutant α-Gal A [5]: effectively increased; enzyme activity in major organs (mutant (R301Q) α-Gal A): substantially elevated
